The source of these data is patent publication US4269857A, “Control of plant-virus diseases” (Kureha Kagaku Kogyo Kabushiki Kaisha, priority 1978, dated 1981).

One may read the inhibition as the relative decrease from the control value, in per cent.

The subject of test [1] is tobacco mosaic virus (TMV). The experiment in a line: Inhibition of local lesion formation by TMV, half-leaf method on kidney bean primary leaves. Format: in vivo, tobacco mosaic virus on kidney bean plants (variety: Otebo). Conditions: Tobacco mosaic virus, TMV, kidney bean primary leaves, 500 ppm, painted just after inoculation, half-leaf method; read-out: Evaluation (rate of inhibition of lesion spot formation). From the text: In the experiments one of the compounds of the present invention was formulated as in the above-mentioned Example 3 and after diluting the formulated composition with water to a predetermined concentration.
In this test, the inhibiting action of the compound of the present invention against the formation of local lesion due to the infection of tobacco mosaic virus (TMV) was examined by the half-leaf method using primary leaves of kedny been plants (variety: Otebo). TMV was inoculated on the primary leaf of kedney been plant, and just after the inoculation, the diluted liquid of the compound was painted on the half surface of the leaf and water was painted on the other half surface of the leaf. The concentration of the compounds of the present invention in the liquid was 500 ppm, and the inoculum was adjusted to form about 50 topical lesion spots on the half surface of the leaf painted with water (control). Ten leaves were usually used for the evaluation of one compound, and the rate of inhibition of lesion spot formation was derived from the following formula: [formula]
The thus obtained rates of inhibition were evaluated according to the following criteria: […]

Test [2] concerns cucumber mosaic virus (CMV). The experiment in a line: Inhibition of CMV disease transmitted by aphids (Myzus persicae) on cucumber plants. Format: in vivo. The note with it: CMV via wingless aphids, 500 ppm, sprayed before aphid transmigration, one week after spray. An excerpt:
The followings are the test results of the compounds of the present invention in the plant virus disease-controlling experiments. In the experiments one of the compounds of the present invention was formulated as in the above-mentioned Example 3 and after diluting the formulated composition with water to a predetermined concentration.
The compounds evaluated as A in Test results 2 were further tested as follows:
The cucumber plants growing for two weeks after sowing in greenhouse were sprayed by each liquid containing each compound at a concentration of 500 ppm (variety of cucumber: Kinseisanto). After drying at room temperature about 3 hours, wingless aphids (Myzus persicae, Sulzer) which had been put on the suffered cucumber plant from CMV and shipped the plant sap containing CMV were transmigrated to the sprayed cucumber plants at a rate of 5 insects per plant. On the next day of the transmigration, the insects were killed by spraying dichlorvos in the plants. After one week of the spray of the compound of the present invention, the effectiveness of the compound in inhibiting the occurrence of the sign of disease due to the virus was investigated as the number of plants without the sign of disease per number of plants sprayed. As the control, water was sprayed.

`CCCCCCCCCCCCNCC[C@H](O)[C@H](O)CO` [Compound 55]: the inhibition at 500 ppm in test [1] lay in the range of 90 to 100%. Moreover, in test [2], the “Evaluation (number of plants without the sign of disease per number of plants sprayed)” value is “A (10/10-8/10)”.

Regarding `CCCCCCCCCCCCNC[C@H](O)[C@@H](O)[C@H](O[C@@H]1O[C@H](CO)[C@H](O)[C@H](O)[C@H]1O)[C@H](O)CO` [Compound 58], the inhibition at 500 ppm in test [1] is 90 to 100%. In addition, the “Evaluation (number of plants without the sign of disease per number of plants sprayed)” value in test [2] is reported as “B (7/10-5/10)”.

In the case of `CCCCCCCCCCCCNC[C@H](O)[C@@H](O)[C@H](O[C@@H]1O[C@H](CO)[C@@H](O)[C@H](O)[C@H]1O)[C@H](O)CO` [Compound 61], the inhibition at 500 ppm in test [1] lay in the range of 90 to 100%. The “Evaluation (number of plants without the sign of disease per number of plants sprayed)” value in test [2] is “B (7/10-5/10)”.
